Where two headings read alike, the source gives them in different places.
Experiments:
[1] = test system: miR-124; assay: Up-regulation of miR-124 in CD3/CD28 antibody-activated T cells (SYBR green fluorescence quantitative PCR); assay type: cell-based; conditions: T-cell, 72 h; activated human T cells, final compound concentration 1 µM, 3 days; relative to DMSO, U6 internal reference; read-out: up-regulated miR-124 (relative expression level)
Method: The effect of the compound on miR-124 expression levels was assessed in CD3/CD28 antibody-activated T cells. After the activated T cells were treated with the compound, the total cellular RNA was extracted, the cDNA obtained from reverse transcription was used as a template, and quantification was performed by using an SYBR green fluorescence quantitative PCR method and a specific miR-124 primer.
Isolation of T cells: The purchased human peripheral blood mononuclear cells (PBMCs) were counted, filtered, and then washed once with a separation buffer (PBS, pH 7.4, containing 0.5% BSA and 2 mM EDTA), and the supernatant was discarded. Various components were added in such a manner that for every 1 × 10^7 cells, 40 µL of buffer and 10 µL of pan T Cell Biotin-Antibody Cocktail were added. The pellets were resuspended and well mixed, and the suspension was incubated in a refrigerator at 4 °C for 5 min. After the incubation was completed, various components were added in such a manner that for every 1 × 10^7 cells, 30 µL of buffer and 20 µL of Pan T Cell MicroBeads Cocktail were added. After thorough mixing, the mixture was incubated in a refrigerator at 4 °C for 10 min. […] The cells were counted and added at a density of 1 × 10^6 cells/mL to an RPMI1640 culture medium (complete culture medium) containing 10% FBS and 40 U/mL IL-2, and the mixture was stored on ice for later use. […]

[2] = Long-term accelerated stability tests; assay type: physicochemical; conditions: for Purity (%): Initial; for Crystal form: up to 6 months
Description: Table 12. The long-term accelerated stability of the crystal form

[3] = DVS (dynamic vapor sorption) hygroscopicity testing; assay type: physicochemical
Method: DVS refers to dynamic vapor sorption: Surface Measurement Systems instrinsic was adopted; the humidity started at 50%, the humidity range of the investigation was 0%-95%, and the humidity was increased in increments of 10%; the criterion was that each gradient mass change dM/dT is ≤ 0.002%, TMAX 360 min, two cycles.

[4] = Influencing factors stability test (light exposure, high temperature, high humidity); assay type: physicochemical; conditions: for remaining at 120 h / remaining at 240 h / remaining at 720 h: solid storage, read-out: Purity%
Description: Table 11. The influencing factor stability of the crystal form

[5] = Light exposure (4500 Lux), 5 days
[6] = Light exposure (4500 Lux), 10 days
[7] = Light exposure (4500 Lux), 30 days

FC1(F)Oc2ccc(Nc3ccc4cccc(Cl)c4n3)cc2O1 [Compound 1, 8-Chloro-N-(2,2-difluorobenzo[d][1,3]dioxol-5-yl)quinolin-2-amine]
fold induction at 1 µM [1]: 3.9

FC1(F)Oc2ccc(Nc3ccc4cccc(Cl)c4n3)cc2O1 [crystal form A, 8-chloro-N-(2,2-difluorobenzo[d][1,3]dioxol-5-yl)quinolin-2-amine]
Purity (%) ([2]; 25 °C, 60% RH): 100.0%
Crystal form ([2]; 25 °C, 60% RH): Did not change
physical and chemical stability (conclusion) ([2]; 25 °C/60% RH and 40 °C/75% RH, 6 months): both good physical stability and good chemical stability
Purity (%) ([2]; 40 °C, 75% RH): 100.0%
Crystal form ([2]; 40 °C, 75% RH): Did not change
remaining at 720 h ([2]; solid storage, 25 °C, 60% RH, 1M, read-out: Purity (%)): 100%
remaining at 1440 h ([2]; solid storage, 25 °C, 60% RH, 2M, read-out: Purity (%)): 100%
remaining at 2160 h ([2]; solid storage, 25 °C, 60% RH, 3M, read-out: Purity (%)): 100%
remaining at 4320 h ([2]; solid storage, 25 °C, 60% RH, 6M, read-out: Purity (%)): 100%
hygroscopic weight gain ([3]; accelerated experimental conditions (70% RH)): about 0.02%
crystal form re-identified after DVS testing ([3]; after DVS testing): the crystal form did not change
hygroscopic weight gain ([3]; extreme conditions (90% RH)): about 0.18%
hygroscopic weight gain ([3]; normal storage conditions (room temperature and 60% RH)): about 0.02%
Color and state ([4]; 40°C, 5 days): Off-white solid
Crystal form ([4]; 40°C, 5 days): Did not change
Color and state ([4]; 40°C, 10 days): Off-white solid
Crystal form ([4]; 40°C, 10 days): Did not change
Color and state ([4]; 40°C, 30 days): Off-white solid
Crystal form ([4]; 40°C, 30 days): Did not change
Color and state ([4]; 60°C, 5 days): Off-white solid
Crystal form ([4]; 60°C, 5 days): Did not change
Color and state ([4]; 60°C, 10 days): Off-white solid
Crystal form ([4]; 60°C, 10 days): Did not change
Color and state ([4]; 60°C, 30 days): Off-white solid
Crystal form ([4]; 60°C, 30 days): Did not change
Color and state ([4]; 75% RH, 5 days): Off-white solid
Crystal form ([4]; 75% RH, 5 days): Did not change
Color and state ([4]; 75% RH, 10 days): Off-white solid
Crystal form ([4]; 75% RH, 10 days): Did not change
Color and state ([4]; 75% RH, 30 days): Off-white solid
Crystal form ([4]; 75% RH, 30 days): Did not change
Color and state ([4]; 92.5% RH, 5 days): Off-white solid
Crystal form ([4]; 92.5% RH, 5 days): Did not change
Color and state ([4]; 92.5% RH, 10 days): Off-white solid
Crystal form ([4]; 92.5% RH, 10 days): Did not change
Color and state ([4]; 92.5% RH, 30 days): Off-white solid
Crystal form ([4]; 92.5% RH, 30 days): Did not change
Color and state ([4]; Initial, 0 days): Off-white solid
Crystal form ([4]; Initial, 0 days): Crystal form A
Purity (%) ([4]; Initial, 0 days): 100.0%
Color and state [4, 5]: Off-white solid
Crystal form [4, 5]: Did not change
Color and state [4, 6]: Off-white solid
Crystal form [4, 6]: Did not change
Color and state [4, 7]: Off-white solid
Crystal form [4, 7]: Did not change
physical and chemical stability (conclusion) ([4]; light exposure, 40 °C and 60 °C, 75% and 92.5% humidity, 30 days): both good physical stability and good chemical stability
remaining at 120 h ([4]; 40°C, 5 days): 100%
remaining at 240 h ([4]; 40°C, 10 days): 100%
remaining at 720 h ([4]; 40°C, 30 days): 100%
remaining at 120 h ([4]; 60°C, 5 days): 100%
remaining at 240 h ([4]; 60°C, 10 days): 100%
remaining at 720 h ([4]; 60°C, 30 days): 100%
remaining at 120 h ([4]; 75% RH, 5 days): 100%
remaining at 240 h ([4]; 75% RH, 10 days): 100%
remaining at 720 h ([4]; 75% RH, 30 days): 100%
remaining at 120 h ([4]; 92.5% RH, 5 days): 100%
remaining at 240 h ([4]; 92.5% RH, 10 days): 100%
remaining at 720 h ([4]; 92.5% RH, 30 days): 100%
remaining at 120 h [4, 5]: 100%
remaining at 240 h [4, 6]: 100%
remaining at 720 h [4, 7]: 99.9%
